Key:
amyloid-β plaques = assay: 18F-florbetapir PET scan in Alzheimer's disease patients; assay type: in vivo, human
amyloid-β [1] = settings: ref Joshi et al., 2012, cited from earlier work
amyloid-β [2] = settings: ref Choi et al., 2009; cited from earlier work
amyloid-β plaque = settings: preliminary clinical data; ref Kung et al., 2012; cited from earlier work
[3] = Alzheimer's disease (n = 3), PET 50–65 min post-injection

| SMILES | SUVR Anterior cingulate (amyloid-β plaques; [3]) | SUVR Cortical average (amyloid-β plaques; [3]) | SUVR Frontal cortex (amyloid-β plaques; [3]) | SUVR Occipital cortex (amyloid-β plaques; [3]) | SUVR Parietal cortex (amyloid-β plaques; [3]) | SUVR Posterior cingulate (amyloid-β plaques; [3]) | SUVR Subcortical white matter (amyloid-β plaques; [3]) | SUVR Temporal cortex (amyloid-β plaques; [3]) | 18F-florbetapir scan, visual interpretation (amyloid-β plaques; subject AD01) | 18F-florbetapir scan, visual interpretation (amyloid-β plaques; subject AD02) | 18F-florbetapir scan, visual interpretation (amyloid-β plaques; subject AD03) | Mean cortical-to-cerebellar SUVR (amyloid-β [1]; Alzheimer's disease patients) | Greater SUVR in Alzheimer's disease patients relative to healthy controls (amyloid-β [1]) | Kd (amyloid-β [2]) | Target-to-background ratio for amyloid-β plaque labelling (amyloid-β plaque) |
| --- | --- | --- | --- | --- | --- | --- | --- | --- | --- | --- | --- | --- | --- | --- | --- |
| CNc1ccc(/C=C/c2ccc(OCCOCCOCCF)nc2)cc1 [18F-florbetapir] | 1.28 ± 0.05 | 1.31 ± 0.10 | 1.29 ± 0.13 | 1.12 ± 0.25 | 1.37 ± 0.21 | 1.48 ± 0.11 | 1.62 ± 0.16 | 1.32 ± 0.15 | Positive | Positive | Positive | 1.42 ± 0.24 | 42% | 3.7 nM |  |
| CN(C)c1ccc(-c2cn3cc([123I])ccc3n2)cc1 [123I-IMPY, ^123 I-2-(4′-dimethylaminophenyl)-6-iodo-imidazo[1,2-a]pyridine] |  |  |  |  |  |  |  |  |  |  |  |  |  |  | not as robust as that of PET tracers |
